Reference: patent publication US20240285637A1, “PHOSPHODIESTERASE INHIBITORS FOR THE MITIGATION OF FRAGILE X SYNDROME SYMPTOMS” (THE ROYAL INSTITUTION FOR THE ADVANCEMENT OF …, priority 2021, published 2024)
Entries after “also recorded” stand apart in the source; their conditions may differ.

Legend:
[1] = tested on: blood vessels (capillaries) in the molecular layer of the cerebellum; assay: Acute slice vascular reactivity, cerebellar vermis slices (U46619 constriction, NMDA dilation); type: cell-based, mouse; set-up: effect on the NMDA response (vasodilation) / vasodilation (direct action on blood vessels): dose or concentration left out as unconfirmed; conditions: Fmr1 KO cerebellum, pre-incubation with sildenafil
[2] = tested on: blood vessels in the somatosensory cortex; assay: Acute slice vascular reactivity, somatosensory cortex; type: cell-based, mouse; set-up: effect on the NMDA response (vasodilation) / vasodilation (direct action on blood vessels): dose or concentration left out as unconfirmed; conditions: Fmr1 KO cortex, pre-incubation with sildenafil, at least some blood vessels
[3] = tested on: cerebellar stellate cells; assay: Cell-attached recordings of action currents (intrinsic plasticity) after HFS of parallel fibers; type: cell-based, mouse; conditions: Fmr1 KO stellate cells, pre-treatment with 100 μM sildenafil
From the text: (§1) Cerebellum slice preparation: Mice (P21-35) were anesthetized with isoflurane and immediately decapitated. A block of cerebellar vermis was rapidly dissected from the mouse head and submerged in an ice-cold cutting solution perfused with carbogen gas (95% O2, 5% CO2). Cutting solution contains (in mM): 235 sucrose, 2.5 KCl, 1.25 NaH2PO4, 28 NaHCO3, 0.5 CaCl2, 7 MgCl2, 28 D-glucose, 1 ascorbic acid, and 3 sodium pyruvate (pH 7.4; 305-315 mOsmol/L). The block of vermis was then fastened to a platform, transferred to the slicing chamber and again submerged in ice-cold cutting solution, bubbled with carbogen throughout the remainder of the procedure. Thin slices of cerebellar vermis (300 μm) were obtained with a vibrating tissue sectioner (Leica VT1200; Leica Instruments, Nussloch, Germany). The slices were transferred to oxygenated artificial cerebrospinal fluid (ACSF) and held at room temperature (21° C.-23° C.) for at least 1 h before recordings were performed. […]
(§2) For extracellular stimulations, thin walled borosilicate glass electrodes (OD 1.65 mm, ID 1.15 mm; King Precision Glass Inc, Claremont, CA, USA) were used with a tip resistance of <3 MΩ when filled with ACSF. […] To minimize variability between responses, the stimulating electrode was positioned 50-100 μm away from the recorded cell. […]

[4] = tested on: cerebellar stellate cells; assay: Current-clamp recordings of PF-evoked synaptic events (GABAR plasticity); type: cell-based, mouse; conditions: Fmr1 KO stellate cells, 100 μM sildenafil
From the text: as §1, §2

[5] = tested on: cerebellar stellate cells; assay: Voltage-clamp recordings of pharmacologically-isolated GABAR currents, HFS paired with depolarization; type: cell-based, mouse; conditions: Fmr1 KO stellate cells
From the text: as §1, §2

[6] = tested on: Fmr1 KO mice; assay: Prepulse inhibition of the acoustic startle response; type: in vivo, mouse; conditions: single dose of sildenafil 7.5 mg/kg i.p.
From the text: Behavior experiments-prepulse inhibition: PPI of the acoustic startle response (ASR) was studied in post-pubertal (PD 56-90) animals using an SR-LAB system (San Diego Instruments, San Diego, CA, USA) comprising two sound-attenuating chambers, each equipped with a cylindrical Plexiglas animal enclosure (length 16 cm, inner diameter 8.2 cm). A speaker positioned 24 cm directly above the enclosure provided the broadband tone pulses. A piezoelectric accelerometer affixed to the animal enclosure frame was used to detect and transduce motion resulting from the animals' startle response. Tone pulse parameters were controlled by a microcomputer using the software package (SR-LAB) and interface assembly that also digitized (0-4095), rectified, and recorded stabilimeter readings. All PPI studies were conducted between 09:00 and 17:00 h. Animals randomly received either saline or sildenafil (7.5 mg/kg i.p.) treatment. […] On the first two trials, the magnitude of the startle response to a 30 ms lasting 120 dB tone was measured. […] ASR was measured at each of the four prepulse intensities on five trials; animals were randomly presented with the startle tone alone during the other 10 trials. […]

[7] = tested on: Fmr1 KO mice; assay: Locomotor activity in activity boxes (open field); type: in vivo, mouse; conditions: sildenafil 7.5 mg/kg i.p.
Description: Behavior experiments-locomotor activity: The locomotor activity was measured in an environment (activity boxes) novel to the animals, as described previously. Briefly, mice were handled for about 5 minutes once a day for one week before the testing. On the day of testing, animals were brought in their home cages to the anteroom (a room adjacent to the testing room separated by a door) and kept there for 30 minutes before drug or vehicle administration. Animals of both genotypes were randomly divided into two groups. One group received an i.p. injection of sildenafil (7.5 mg/kg; drug dissolved in sterilized PBS with 2% DMSO) and the other group an i.p. injection of the vehicle. One hour after the drug or vehicle administrations, the animals were placed in individual activity boxes (AccuScan Instruments, Inc., Columbus, OH, USA) (L×W×H=17.5 cm×10 cm×26 cm) in a dimly lit testing room where their locomotor activity was monitored for 90 min. The activity boxes were equipped with infrared sensors; beam breaks by the animals were used to assess locomotor activity. Data were collected using the Versamax™ Software (version 4.0, 2004; AccuScan Instruments, Inc.). The total horizontal activity for the whole 90 min session was used in the analysis.

[8] = tested on: cerebellar stellate cells; assay: Minimal stimulation protocol, evoked IPSCs before and after HFS (failure rate of GABAergic transmission); type: cell-based, mouse; conditions: Fmr1 KO stellate cells

`CCCc1nn(C)c2c(=O)[nH]c(-c3cc(S(=O)(=O)N4CCN(C)CC4)ccc3OCC)nc12` [sildenafil] was tested, and the “effect on the NMDA response (vasodilation)” value [1] was “little or no effect”, the “effect on the NMDA response (vasodilation)” value [2] was “rescue some of the deficits” and the “long-term increase in baseline firing rates following HFS of PFs” value [3] was “restored the long-term increase in baseline firing rates”. The “GABAR plasticity (NMDAR-mediated inhibitory synapse strengthening), current-clamp” value [4] was “rescued the complete loss of GABAR plasticity”, the “GABAR plasticity (NMDAR-mediated inhibitory synapse strengthening), voltage-clamp” value ([5]; 100 μM sildenafil) was “rescued the complete loss of GABAR plasticity” and the “baseline properties of the cells” value ([5]; current-clamp and voltage-clamp, data not shown) was “did not, however, affect baseline properties”. For the same compound, the “deficits in prepulse inhibition (PPI)” value [6] was “fully correct deficits; also recorded: rescued”, the “enhanced locomotor activity / deficits in locomotion” value [7] was “normalized the enhanced locomotor activity; also recorded: rescued” and the “failure rate (mean)” value ([8]; 10−100 μM sildenafil in the patch electrode, baseline, n=5) was 90.9+/−3.57%. For the same compound, the “failure rate, failed events (mean)” value ([8]; 10−100 μM sildenafil in the patch electrode, post-HFS, n=5) was 59.44+/−8.36% and the “iLTP following HFS of parallel fibers” value ([8]; sildenafil in the patch electrode) was “remarkable restoration of iLTP”.
